From ChEMBL document CHEMBL1944566, “Conjugation of cell-penetrating peptides leads to identification of anti-HIV peptides from matrix proteins” (Bioorg Med Chem, 2012)
Activity calls are given as the source filed them. No cut-off for these calls is given here. Where a SMILES comes first, the peptide text is derived from it. The star is where a group is joined. Cam = NC(=O)C*

Key:
[1] = tested on: Human immunodeficiency virus 1; assay: Antiviral activity against R5 tropic HIV1 JR-CSF in PM1/CCR5 cells assessed as protection from virus-induced cytopathogenicity measuring capsid p24 level after 5 days by ELISA; type: functional, cell-based; settings: Human immunodeficiency virus 1, JRCSF ISOLATE, PM1/CCR5, 120 h
[2] = tested on: Human immunodeficiency virus 1; assay: Antiviral activity against X4 tropic HIV1 NL4-3 in MT4 cells assessed as protection from virus-induced cytopathogenicity after 5 days by MTT assay; type: functional, organism-based; settings: Human immunodeficiency virus 1, NL4-3, MT4, 120 h
[3] = tested on: Human immunodeficiency virus 1; assay: Antiviral activity against R5 tropic HIV1 NL(AD8) in PM1/CCR5 cells assessed as protection from virus-induced cytopathogenicity at 25 uM after 5 days by MTT assay; type: functional; settings: Human immunodeficiency virus 1, NL(AD8), PM1/CCR5, 120 h
[4] = Cytotoxicity against human MT4 cells after 5 days by MTT assay; type: cell-based
[5] = Solubility in PBS buffer; type: physicochemical
[6] = tested on: Human immunodeficiency virus 1; assay: Antiviral activity against X4 tropic HIV1 NL4-3 in MT4 cells assessed as protection from virus-induced cytopathogenicity at 12.5 uM after 5 days by MTT assay; type: functional, organism-based
[7] = tested on: Human immunodeficiency virus 1; assay: Antiviral activity against X4 tropic HIV1 NL4-3 in MT4 cells assessed as protection from virus-induced cytopathogenicity at 25 uM after 5 days by MTT assay; type: functional, organism-based
[8] = tested on: Human immunodeficiency virus 1; assay: Antiviral activity against R5 tropic HIV1 NL(AD8) in PM1/CCR5 cells assessed as protection from virus-induced cytopathogenicity after 5 days by MTT assay; type: functional, organism-based; settings: Human immunodeficiency virus 1, NL(AD8), PM1/CCR5, 120 h

| SMILES | EC50 [1] [µM] | EC50 [2] [µM] | inhibition at 25 µM [3] [%] | CC50 at 120 h [4] [µM] | solubility [5] | inhibition [6] | inhibition [7] | EC50 [8] [µM] |
| --- | --- | --- | --- | --- | --- | --- | --- | --- |
| CC[C@H](C)[C@H](NC(=O)[C@H](CCCCN)NC(=O)[C@H](CC(=O)O)NC(=O)[C@H](CC(C)C)NC(C)=O)C(=O)N[C@@H](CCC(=O)O)C(=O)N[C@@H](CCC(=O)O)C(=O)N[C@@H](CCC(=O)O)C(=O)N[C@@H](CCC(N)=O)C(=O)N[C@@H](CC(N)=O)C(=O)N[C@@H](CCCCN)C(=O)N[C@@H](CO)C(=O)N[C@@H](CCCCN)C(=O)N[C@@H](CCCCN)C(=O)N[C@@H](CCCCN)C(=O)N[C@@H](C)C(=O)NCC(=O)N[C@@H](CSCC(=O)N[C@@H](CCCNC(=N)N)C(=O)N[C@@H](CCCNC(=N)N)C(=O)N[C@@H](CCCNC(=N)N)C(=O)N[C@@H](CCCNC(=N)N)C(=O)N[C@@H](CCCNC(=N)N)C(=O)N[C@@H](CCCNC(=N)N)C(=O)N[C@@H](CCCNC(=N)N)C(=O)N[C@@H](CCCNC(=N)N)C(N)=O)C(N)=O | 23 | 18 | 17 | > 50 |  |  |  |  |
| CC(=O)N[C@@H](CC(=O)O)C(=O)N[C@H](C(=O)NCC(=O)N[C@@H](CC(N)=O)C(=O)N[C@@H](CC(N)=O)C(=O)N[C@@H](CO)C(=O)N[C@@H](CCC(N)=O)C(=O)N[C@H](C(=O)N[C@@H](CO)C(=O)N[C@@H](CCC(N)=O)C(=O)N[C@@H](CC(N)=O)C(=O)N[C@@H](Cc1ccc(O)cc1)C(=O)NCC(=O)N[C@@H](CS)C(N)=O)C(C)C)[C@@H](C)O |  |  |  |  | Insoluble |  |  |  |
| CC[C@H](C)[C@H](NC(=O)[C@H](Cc1cnc[nH]1)NC(=O)[C@H](CCCCN)NC(=O)[C@H](CC(C)C)NC(C)=O)C(=O)N[C@H](C(=O)N[C@@H](Cc1c[nH]c2ccccc12)C(=O)N[C@@H](C)C(=O)N[C@@H](CO)C(=O)N[C@@H](CCCNC(=N)N)C(=O)N[C@@H](CCC(=O)O)C(=O)N[C@@H](CC(C)C)C(=O)N[C@@H](CCC(=O)O)C(=O)N[C@@H](CCCNC(=N)N)C(=O)N[C@@H](Cc1ccccc1)C(=O)N[C@@H](C)C(=O)NCC(=O)N[C@@H](CSCC(N)=O)C(N)=O)C(C)C (Ac-LKHIVWASRELERFAGC(Cam)-NH2) |  |  |  | 14 |  | inactive |  |  |
| CC[C@H](C)[C@H](NC(=O)[C@H](Cc1cnc[nH]1)NC(=O)[C@H](CCCCN)NC(=O)[C@H](CC(C)C)NC(=O)[C@H](CCCCN)NC(=O)[C@H](Cc1ccc(O)cc1)NC(=O)[C@H](CCC(N)=O)NC(=O)[C@H](CCCCN)NC(=O)[C@H](CCCCN)NC(=O)CNC(=O)CNC(=O)[C@@H]1CCCN1C(=O)[C@H](CCCNC(=N)N)NC(=O)[C@H](CC(C)C)NC(C)=O)C(=O)N[C@H](C(=O)NCC(=O)N[C@@H](CSCC(=O)N[C@@H](CCCNC(=N)N)C(=O)N[C@@H](CCCNC(=N)N)C(=O)N[C@@H](CCCNC(=N)N)C(=O)N[C@@H](CCCNC(=N)N)C(=O)N[C@@H](CCCNC(=N)N)C(=O)N[C@@H](CCCNC(=N)N)C(=O)N[C@@H](CCCNC(=N)N)C(=O)N[C@@H](CCCNC(=N)N)C(N)=O)C(N)=O)C(C)C |  |  |  | 36 |  |  | inactive |  |
| CC(=O)N[C@@H](CO)C(=O)N[C@@H](CCCCN)C(=O)N[C@@H](CCCCN)C(=O)N[C@@H](CCCCN)C(=O)N[C@@H](C)C(=O)N[C@@H](CCC(N)=O)C(=O)N[C@@H](CCC(N)=O)C(=O)N[C@@H](C)C(=O)N[C@@H](C)C(=O)N[C@@H](C)C(=O)N[C@@H](CC(=O)O)C(=O)N[C@H](C(=O)NCC(=O)N[C@@H](CC(N)=O)C(=O)N[C@@H](CC(N)=O)C(=O)NCC(=O)N[C@@H](CSCC(=O)N[C@@H](CCCNC(=N)N)C(=O)N[C@@H](CCCNC(=N)N)C(=O)N[C@@H](CCCNC(=N)N)C(=O)N[C@@H](CCCNC(=N)N)C(=O)N[C@@H](CCCNC(=N)N)C(=O)N[C@@H](CCCNC(=N)N)C(=O)N[C@@H](CCCNC(=N)N)C(=O)N[C@@H](CCCNC(=N)N)C(N)=O)C(N)=O)[C@@H](C)O | 27 | 41 | 30 | > 50 |  |  |  |  |
| CC[C@H](C)[C@H](NC(=O)[C@@H](NC(=O)[C@H](CC(N)=O)NC(=O)[C@H](Cc1ccc(O)cc1)NC(=O)[C@H](CC(C)C)NC(=O)[C@H](CO)NC(=O)[C@H](CCCNC(=N)N)NC(=O)[C@H](CC(C)C)NC(=O)[C@H](CCC(=O)O)NC(=O)[C@H](CCC(=O)O)NC(=O)[C@H](CO)NC(=O)CNC(C)=O)[C@@H](C)O)C(=O)N[C@@H](C)C(=O)N[C@H](C(=O)N[C@@H](CC(C)C)C(=O)NCC(=O)N[C@@H](CSCC(=O)N[C@@H](CCCNC(=N)N)C(=O)N[C@@H](CCCNC(=N)N)C(=O)N[C@@H](CCCNC(=N)N)C(=O)N[C@@H](CCCNC(=N)N)C(=O)N[C@@H](CCCNC(=N)N)C(=O)N[C@@H](CCCNC(=N)N)C(=O)N[C@@H](CCCNC(=N)N)C(=O)N[C@@H](CCCNC(=N)N)C(N)=O)C(N)=O)C(C)C | 7.8 | 2.3 |  | 9 | soluble |  |  | 5.8 |
